{"source": "EPA's ToxValDB 9.5 (doi:10.2903/j.efsa.2011.2152)", "key": {"[1]": {"test_system": "Aphidius rhopalosiphi", "test": "LR50; higher = less toxic", "conditions": "not reported; mortality"}, "[2]": {"test_system": "Typhlodromus pyri", "test": "LR50; higher = less toxic", "conditions": "not reported; mortality"}, "[3]": {"test_system": "Cyprinus carpio", "conditions": "chronic/long-term; duration: 28 days"}, "[4]": {"test_system": "Rattus norvegicus"}, "[5]": {"test_system": "Oncorhynchus mykiss", "conditions": "acute; duration: 96 hours; mortality"}, "[6]": {"test_system": "Oryctolagus sp.", "conditions": "reproduction developmental; body weight"}, "[7]": {"test_system": "Coturnix japonica", "conditions": "acute; oral; mortality"}, "[8]": {"test_system": "Bird", "conditions": "reproductive; mortality"}, "[9]": {"test_system": "Tagia sp.", "conditions": "acute; duration: 14 days; mortality"}, "[10]": {"test_system": "Daphnia magna", "conditions": "chronic/long-term; duration: 21 days"}}, "data": [{"smiles": "O=C(O)COc1ccc2ccccc2c1", "note": "[2-Naphthoxyacetic acid]", "values": [{"measurement": "LR50", "setting": "[1]", "value": "> 100", "unit": "g/ha"}, {"measurement": "LR50", "setting": "[2]", "value": "> 80", "unit": "g/ha"}, {"measurement": "NOEC", "setting": "[3]", "value": 10, "unit": "mg/L"}, {"measurement": "LD50", "setting": "[4]; acute, oral, F, mortality", "value": 1420, "unit": "mg/kg-day"}, {"measurement": "NOAEL", "setting": "[4]; developmental, development", "value": 60, "unit": "mg/kg-day"}, {"measurement": "NOAEL", "setting": "[4]; reproduction developmental, mortality", "value": 30, "unit": "mg/kg-day"}, {"measurement": "NOAEL", "setting": "[4]; subchronic, duration: 90 days, oral, organ weight", "value": 10, "unit": "mg/kg-day"}, {"measurement": "LC50", "setting": "[5]", "value": 2.39, "unit": "µg/mL"}, {"measurement": "NOAEL", "setting": "[6]", "value": 60, "unit": "mg/kg-day"}, {"measurement": "LD50", "setting": "[7]", "value": "> 2000", "unit": "mg/kg-day"}, {"measurement": "NOEC", "setting": "[8]", "value": 10, "unit": "mg/kg-day"}, {"measurement": "LC50", "setting": "[9]", "value": 0.045, "unit": "g/ha"}, {"measurement": "NOEC", "setting": "[10]", "value": 6.7, "unit": "mg/L"}]}]}
